Test results published in patent US4093617A, “3,5,7-Trisubstituted pyrazolo[1,5-a]pyrimidines” (ICN Pharmaceuticals, Inc., priority 1976, dated 1978).
Several values for one entry are separate records, joined by “and”; a condition that tells them apart may be missing. Equal values may be shown once. Read-outs that look alike come from different tables or passages of the source.

Tests used:
[1] = test system: 3',5'-Cyclic AMP Phosphodiesterase (PDE); assay: Inhibition of 3',5'-cyclic AMP phosphodiesterase (PDE) isolated from rabbit kidney, low affinity (Fraction I, high Km); format: biochemical; conditions: for IC50: cAMP approx. 5 × 10^-4 M
[2] = test system: histamine-induced bronchospasm; conditions: F. L. Rose et al, J. Chem. Soc.; cited from earlier work
[3] = test system: male Sprague-Dawley rats; assay: Antianxiety activity: stimulation of drinking activity of the rat in a passive avoidance behavioral paradigm; format: in vivo; conditions: for minimal effective dose: read-out: Dose wherein the first statistically behavioral difference (p<0.05 or less) from the control group occurs; for ED50: read-out: ED50 (dose producing 50% of maximum effect)
Method: In Tables V and VI the antianxiety activity of the listed compounds is measured as a function of the compounds ability to stimulate drinking activity of the rat in a passive avoidance behavioral paradigm. For these tests male Sprague-Dawley rats weighing 175 to 200 grams were water deprived for 48 hr. and placed in environmental chambers in which water was available with a punishment contingency. Each accumulated 3 sec. of contact with the drinking tube caused a constant current source (1.2 mA DC) to be applied to the drinking tube for 2 sec. Test sessions were 5 min. in duration, commencing with delivery of the first shock. Twelve rats were treated orally 1 hr. or intraperitoneally 30 min. prior to testing. The tests are scored based on the number of shocks accepted by the treated animals at a specific dose and were compared to twelve saline control animals tested on the same day.
In Table V the activity is expressed as an ED50. The ED50 is the dose of the compound in mg/kg producing 50% of maximum effect and is shown for both oral (p.o.) and interperitoneal (i.p.) routes of administration.
In Table VI the activity is expressed as the dose (i.p.) wherein the first statistically behavioral difference (p<0.05 or less) from the control group occurs. Included for comparison are the commonly prescribed antianxiety drugs, chlordiazepoxide and diazepam.

[4] = test system: male Swiss-Webster mice; assay: Potentiation of the depressant effects of sodium barbital, loss of the righting reflex in the mouse; format: in vivo
Method: This dose of barbital sodium (100 mg/kg) was then injected i.p. in a group of ten mice. Fifteen min. later the mice were injected i.p. with the dose of compound to be tested. […] Mice were tested at 15 min. intervals for one hour after injection of test compound. Responses were recorded on an all-or-none basis; loss of righting reflex for 5 min. or longer was the effective criteria.

[5] = Potentiation of the depressant effects of ethanol, loss of the righting reflex in the mouse; conditions: po
Method: For this test male Swiss-Webster mice weighing 18 to 20 grams were food deprived 18 hours prior to the experiment. […] Drugs were given orally in 20 ml/kg of 1% CMC. Ethanol (5 gm/kg p.o.) was given 30 minutes after drug injection. Immediately after treatment animals were placed in individual clear plastic containers.
The righting reflex was recorded as being present when the animal would voluntarily roll to its side when placed on its back. Animals were tested for righting reflex every 15 minutes.

[6] = test system: 3',5'-Cyclic AMP Phosphodiesterase (PDE); assay: Inhibition of 3',5'-cyclic AMP phosphodiesterase (PDE) isolated from rabbit lung, low affinity (Fraction I, high Km); format: biochemical; conditions: for IC50: cAMP approx. 5 × 10^-4 M
[7] = test system: 3',5'-Cyclic-AMP phosphodiesterase (PDE); assay: Inhibition of PDE from rabbit lung, high affinity (Fraction II, low Km); format: biochemical; conditions: cAMP 1.6 × 10^-7 M, relative to theophylline
[8] = test system: 3',5'-Cyclic-AMP phosphodiesterase (PDE); assay: Inhibition of PDE from beef heart, high affinity (Fraction II, low Km); format: biochemical; conditions: cAMP 1.6 × 10^-7 M, relative to theophylline
[9] = test system: phosphodiesterase; conditions: cited from earlier work
[10] = test system: central nevous system; conditions: in vivo; cited from earlier work
[11] = i.p., 15 min after sodium barbital 100 mg/kg i.p.
[12] = ip, 0.5 h, i.p., 30 min prior to testing

In the case of CCCc1nc(C)cc2nc(N)nn12 [COMPOUND 1], the “α (relative inhibitory activity as compared with theophylline)” value [1] is given as 0.14, the IC50 ([1]; read-out: I50) is given as 1600 µM and the “Protection from histamine-induced bronchospasm” value [2] is given as “capable of protecting animals from histamine-induced bronchospasm”.
In the case of CCOC(=O)c1cnn2c(C)cc(C)nc12 [COOC2 H5], the “α (relative inhibitory activity as compared with theophylline)” value [1] is reported as 0.22 and the IC50 ([1]; read-out: I50) is reported as 1000 µM.
In the case of CNC1=Nc2ccc(Cl)cc2C(c2ccccc2)=[N+]([O-])C1 [Chlordiazepoxide, chlordiazepoxide, reference compound], the minimal effective dose ([3]; ip, 0.5 h) is reported as 10 mg/kg, the “Dose of compound which produced loss of righting reflex in 50% of treated animals” value [4, 11] is reported as 6.4 ± 0.4 mg/kg and the NOAEL ([5]; in vivo) is reported as 4 mg/kg.
With CN1C(=O)CN=C(c2ccccc2)c2cc(Cl)ccc21 [Diazepam, diazepam, reference compound] the minimal effective dose ([3]; ip, 0.5 h) was 20 mg/kg and the “Dose of compound which produced loss of righting reflex in 50% of treated animals” value [4, 11] was 0.5 ± 0.8 mg/kg.
In the case of Cc1cc(C)n2ncc(Br)c2n1 [Example I, 3-Bromo-5,7-dimethyl pyrazolo[1,5-a]pyrimidine], the “α (relative inhibitory activity as compared with theophylline)” value [1] is reported as 2.20, the IC50 ([1]; read-out: I50) is reported as 100 µM and the “α (relative inhibitory activity as compared with theophylline)” value [6] is reported as 2.4. For the same molecule, the IC50 ([6]; read-out: I50) was 270 µM, the “α Lung” value [7] was 0.7 and the “α Heart” value [8] was 1.7. It also gave an ED50 [3, 12] of 10.5 ± 0.8 mg/kg, a minimal effective dose ([3]; ip, 0.5 h, i.p.) of 10 mg/kg and an ED50 ([3]; po, 1 hr prior to testing) of 9.5 ± 3.5 mg/kg. For the same molecule, the “Dose of compound which produced loss of righting reflex in 50% of treated animals” value ([4]; mouse, in vivo, ip) was 61.9 ± 12.1 mg/kg and the NOAEL ([5]; mouse) was 400 mg/kg.
In the case of Cc1cc(C)n2nccc2n1 [H, 5,7-dimethyl pyrazolo[1,5-a]pyrimidine, reference compound], the “α (relative inhibitory activity as compared with theophylline)” value [1] is reported as 0.20, the IC50 ([1]; read-out: I50) is reported as 800 µM and the “α (relative inhibitory activity as compared with theophylline)” value [6] is reported as 0.32. For the same molecule, the IC50 ([6]; read-out: I50) was 2000 µM, the ED50 [3, 12] was 20.9 ± 4.6 mg/kg and the minimal effective dose ([3]; ip, 0.5 h, i.p.) was 40 mg/kg. The ED50 ([3]; po, 1 hr prior to testing) was 43.6 ± 6.1 mg/kg, the “Dose of compound which produced loss of righting reflex in 50% of treated animals” value ([4]; mouse, in vivo, ip) was 118.8 ± 15.7 mg/kg and the NOAEL ([5]; mouse) was 300 mg/kg.
In the case of Cc1cc(C)n2ncc(Cl)c2n1 [II, 3-Chloro-5,7-dimethyl pyrazolo[1,5-a]pyrimidine], the “α (relative inhibitory activity as compared with theophylline)” value [1] is reported as 1.33, the IC50 ([1]; read-out: I50) is reported as 240 µM and the “α (relative inhibitory activity as compared with theophylline)” value [6] is reported as 3.1. The IC50 ([6]; read-out: I50) was 210 µM, the “α Lung” value [7] was 2.2 and the “α Heart” value [8] was 1.7. For the same molecule, the ED50 [3, 12] was 2.4 ± 4.3 mg/kg, the minimal effective dose ([3]; ip, 0.5 h, i.p.) was 10 mg/kg and the ED50 ([3]; po, 1 hr prior to testing) was 7.8 ± 4.5 mg/kg. The “Dose of compound which produced loss of righting reflex in 50% of treated animals” value ([4]; mouse, in vivo, ip) was 60.9 ± 20.8 mg/kg and the NOAEL ([5]; mouse) was 200 mg/kg.
In the case of Cc1cc(C)n2ncc(I)c2n1 [III, 5,7-Dimethyl 3-iodo pyrazolo[1,5-a]pyrimidine], the “α (relative inhibitory activity as compared with theophylline)” value [1] is reported as 1.23, the IC50 ([1]; read-out: I50) is reported as 130 µM and the “α (relative inhibitory activity as compared with theophylline)” value [6] is reported as 3.5. The IC50 ([6]; read-out: I50) was 210 µM, the “α Lung” value [7] was 3.5 and the “α Heart” value [8] was 1.5. The ED50 [3, 12] was 10.1 ± 6.8 mg/kg, the minimal effective dose ([3]; ip, 0.5 h, i.p.) was 20 mg/kg and the ED50 ([3]; po, 1 hr prior to testing) was 95.9 ± 11.7 mg/kg. The “Dose of compound which produced loss of righting reflex in 50% of treated animals” value ([4]; mouse, in vivo, ip) was 142.8 ± 10.1 mg/kg and the NOAEL ([5]; mouse) was 200 mg/kg.
Work on Cc1cc(C)n2ncc(F)c2n1 [IV, 5,7-Dimethyl 3-fluoro pyrazolo[1,5-a]pyrimidine] yielded an ED50 [3, 12] of 40.7 ± 11.9 mg/kg, a minimal effective dose ([3]; ip, 0.5 h, i.p.) of 40 mg/kg and an ED50 ([3]; po, 1 hr prior to testing) of 76.2 ± 10.8 mg/kg. For the same molecule, the “Dose of compound which produced loss of righting reflex in 50% of treated animals” value ([4]; mouse, in vivo, ip) was 148.5 ± 4.5 mg/kg and the NOAEL ([5]; mouse) was 100 mg/kg.
For CCc1cc(C)nc2c(Br)cnn12 [XIV, 3-Bromo-7-ethyl-5-methylpyrazolo[1,5-a]pyrimidine], the “α Lung” value [7] was 7.5 and the “α Heart” value [8] was 4.0.
With CCCc1cc(C)nc2c(Br)cnn12 [XV, 3-Bromo-5-methyl-7-n-propylpyrazolo[1,5-a]pyrimidine] the “α Lung” value [7] was 7.5 and the “α Heart” value [8] was 6.5.
In the case of CCc1cc(CC)n2ncc(Br)c2n1 [XVI, 3-Bromo-5,7-diethylpyrazolo[1,5-a]pyrimidine], the “α Lung” value [7] is reported as 7.4 and the “α Heart” value [8] is reported as 6.0.
With CCCc1cc(CCC)n2ncc(Br)c2n1 [XVII, 3-Bromo-5,7-di-n-propylpyrazolo[1,5-a]pyrimidine] the “α Lung” value [7] was 5.5 and the “α Heart” value [8] was 3.0.
For CCCc1nc(C)cn2c(N)nnc12 [compound 2], the “Protection from histamine-induced bronchospasm” value [2] is given as “capable of protecting animals from histamine-induced bronchospasm”.
In the case of Cn1c(=O)c2[nH]cnc2n(C)c1=O [theophylline], the IC50 ([1]; theophylline reference run of each compound line, read-out: I50 (theophylline)) is listed as 160 µM and 220 µM and 320 µM, the IC50 ([6]; theophylline reference run of each compound line, read-out: I50 (Theophylline)) is listed as 640 µM and 740 µM and the “Selectivity of phosphodiesterase inhibition” value [9] is listed as “does not selectively inhibit phosphodiesterase”. The Cardiovascular effects [10] was “rapid beating” and the “Central nervous system effect” value [10] was “gives general stimulation to the central nevous system”.
